# Reference: patent US20170183306A1, “CYCLIC COMPOUNDS HAVING A 1,3 DIAMINO-FUNCTIONALITY FOR USE IN THE TREATMENT OF HIV INFECTION” (Universite Paris Descartes, priority 2014, published 2017)
# Where two headings read alike, the source gives them in different places.
# Legend:
# Type in all cases: cell-based
# J-Lat cells = test: J-Lat cells, percentage of GFP-positive cells by cytometry; conditions: 24 h, compound alone
# Description: The J-Lat were grown in RPMI 1640 medium (Gibco-BRL) supplemented with 10% fetal bovine serum, 50 U/ml of penicillin, […] of streptomycin at 37 uC in a humidified 95% air/5% CO2 atmosphere. The cells were plated at 5.105 cells in a 96 well-plate. TNF ? was purchased from Immunosource. SAHA (suberoylanilide hydroxamic acid), prostratin (12-deoxyphorbol-13-acetate) and vorinostat were obtained from Sigma-Aldrich. The J-Lat cells were treated for 24 h with the different compounds alone. The cells were washed twice in PBS, re-suspended in PBS containing 4% paraformaldehyde and fixed for 30 min. Cells were next washed and re-suspended in PBS. The percentage of GFP-positive cells was measured with a LSRFortessa cytometer (Becton-Dickinson) using FACSDiva Version 6.1.3 according to the manufacturer's instructions.
# The results for the J-Lat cells experiments are expressed as a percentage of the living fluorescent cells. In this model, some slight increase of viral production measured by fluorescence are quantified (table 1).
# [1] = tested on: wild type NL4-3 virus (HIV-1) in HeLa-p4 cells; test: HeLa-p4 single-cycle HIV-1 infectivity, beta-galactosidase CPRG test; conditions: 48 hours after infection, control = NL4-3 virus alone; for activity at 50 µM / activity at 100 µM / activity at 200 µM: Human immunodeficiency virus 1, NL43, HeLaP4; for activity at 50 µM: read-out: Hela-p4 CPRG 50 μM; for activity at 100 µM: read-out: Hela-p4 CPRG 100 μM
# Description: (§1) HeLa-p4 cells are HeLa CD4 LTR-LacZ wherein LacZ expression is induced by the trans-activating protein Tat of HIV, making possible the precise quantification of HIV-1 infectivity from a single replication cycle. HeLa-CD4 cells growing exponentially at a density of 1×10^4/mL were placed in 96-well plates and infected the following day with 1 ng of HIV p24 antigen in the presence of different concentrations of compounds. The titles for a single cycle of the viruses were determined 48 hours after infection by quantifying the beta-galactosidase activity in lysates P4 by colorimetric test (CPRG, Promega) based on the cleavage of chlorophenol red-beta-D-galactopyranoside (CPRG) by beta-galactosidase. A cell viability assay measuring the absorbance at […] using the yellow tetrazolium reagent MTS [[…]] (Promega) was carried out.
# (§2) For the helap4 cells experiments, the efficacy of the compounds is determined in comparison with control cells containing wild type NL4-3 virus alone (i.e. without any added compound) and is expressed as percentage of control. Then, the viral replication was increased for several compounds at the 50 and 100 μM concentrations with an absence of cytotoxic effects at the same concentrations (MTS test) (table 1).
# HeLa-p4 cells = test: Cell viability assay (MTS) on HeLa-p4 cells
# Description: as §1, §2
Compound,J-lat 50 μM (J-Lat cells),J-lat 100 μM (J-Lat cells),activity at 50 µM ([1]; 50 μM),activity at 100 µM ([1]; 100 μM),activity at 200 µM [1],"Hela-p4 MTS 50 μM (HeLa-p4 cells; 50 μM, cell viability)","Hela-p4 MTS 100 μM (HeLa-p4 cells; 100 μM, cell viability)",Hela-p4 MTS 200 μM (HeLa-p4 cells; cell viability),"Hela-p4 MTS 50 μM (HeLa-p4 cells; human, 50 μM)","Hela-p4 MTS 100 μM (HeLa-p4 cells; human, 100 μM)",Hela-p4 CPRG 50 μM ([1]; 50 μM),Hela-p4 CPRG 100 μM ([1]; 100 μM),Hela-p4 MTS 50 μM (HeLa-p4 cells),Hela-p4 MTS 100 μM (HeLa-p4 cells)
"CC(O)c1ccc(C(=O)NC(CCCCN)C(=O)N2C[C@H](N)C[C@H](N)C2)cc1 (stereo partly drawn) [AB289-1, N-(6-amino-1-(3,5-diaminopiperidin-1-yl)-1-oxohexan-2-yl)-4-(1-hydroxyethyl)benzamide]",0 percentage of the living fluorescent cells,0.8 percentage of the living fluorescent cells,157%,236%,294%,103,100,74,,,,,,
"COc1cccc(CCN2C[C@H](NC(=O)OC(C)(C)C)C[C@H](NC(=O)OC(C)(C)C)C2)c1 [ECO03-03-C, di-tert-butyl (1-(3-methoxyphenethyl)piperidine-3,5-diyl)dicarbamate]",0.4 percentage of the living fluorescent cells,,148%,341%,440%,105,104,104,,,,,,
"N[C@@H]1C[C@H](N)CN(c2cccc(C(=O)Nc3ccccc3)c2)C1 [ECO02-003-C, 3-(3,5-diaminopiperidin-1-yl)-N-phenylbenzamide]",0.4 percentage of the living fluorescent cells,0.5 percentage of the living fluorescent cells,140%,118%,,105,60,,,,,,,
"COc1ccc(CCN2C[C@H](N)C[C@H](N)C2)cc1OC [AB-77, (3S,5R)-1-(3,4-dimethoxyphenethyl)piperidine-3,5-diamine]",0.1 percentage of the living fluorescent cells,0.8 percentage of the living fluorescent cells,165%,184%,310%,93,97,69,,,,,,
"COc1cccc(CCN2C[C@H](N)C[C@H](N)C2)c1 [ECO01-026-C2, 1-(3-methoxyphenethyl)piperidine-3,5-diamine]",3.3 percentage of the living fluorescent cells,,116%,169%,234%,106,98,72,,,,,,
"Cc1ccccc1CCN1C[C@H](N)C[C@H](N)C1 [ECO01-028-C, 1-(2-methylphenethyl)piperidine-3,5-diamine]",0.1 percentage of the living fluorescent cells,0 percentage of the living fluorescent cells,108%,113%,,91,94,,,,,,,
"COc1ccc2c(CN3C[C@H](NC(=O)OC(C)(C)C)C[C@H](NC(=O)OC(C)(C)C)C3)cn(C)c2c1 [ECO02-060-C, di-tert-butyl (1-((6-methoxy-1-methyl-1H-indol-3-yl)methyl)piperidine-3,5-diyl)dicarbamate]",0.6 percentage of the living fluorescent cells,,178%,221%,217%,69,54,43,,,,,,
"N[C@@H]1C[C@H](N)CN(c2ccccc2)C1 [ECO01-037-C, 1-phenylpiperidine-3,5-diamine]",0.6 percentage of the living fluorescent cells,0.2 percentage of the living fluorescent cells,103%,103%,,97,106,,,,,,,
"COc1cccc(CCN2C[C@H](NC(C)=O)C[C@H](NC(C)=O)C2)c1 [ECO02-072-C, N,N′-(1-(3-methoxyphenethyl)piperidine-3,5-diyl)diacetamide]",2.1 percentage of the living fluorescent cells,,107%,167%,242%,111,98,84,,,,,,
CN(C)c1ccc(CN2C[C@H](NC(=O)OC(C)(C)C)C[C@H](NC(=O)OC(C)(C)C)C2)cc1 [ECO02-062-C],0.7 percentage of the living fluorescent cells,,239%,269%,401%,91,84,73,,,,,,
"COc1cccc(CCN2C[C@H](NS(C)(=O)=O)C[C@H](NS(C)(=O)=O)C2)c1 [ECO02-073-B2, N,N′-(1-(3-methoxyphenethyl)piperidine-3,5-diyl)dimethanesulfonamide]",0.6 percentage of the living fluorescent cells,,103%,127%,253%,96,94,69,,,,,,
"N[C@@H]1C[C@H](N)CN(CCc2ccccc2)C1 [ECO02-027-C, 1-phenethylpiperidine-3,5-diamine]",8.7 percentage of the living fluorescent cells,2.3 percentage of the living fluorescent cells,75%,52%,,100,45,,,,,,,
"N[C@@H]1C[C@H](N)CN(C23CC4CC(CC(C4)C2)C3)C1 [AB541, 1-(adamantan-1-yl)piperidine-3,5-diamine]",0.1 percentage of the living fluorescent cells,10.5 percentage of the living fluorescent cells,158%,157%,,,,,141,123,,,,
COc1cccc(CCN2C[C@@H](N)C[C@@H](NC(=O)OC(C)(C)C)C2)c1 [ECO02-078-C],0.8 percentage of the living fluorescent cells,,251%,390%,145%,105,103,25,,,,,,
"COc1ccc(CC(=O)N2C[C@H](N)C[C@H](N)C2)cc1OC [AB287-F1, 1-((3S,5R)-3,5-diaminopiperidin-1-yl)-2-(3,4-dimethoxyphenyl)ethanone]",0.1 percentage of the living fluorescent cells,0.4 percentage of the living fluorescent cells,137%,182%,,103,92,,,,,,,
"COC(=O)[C@@H](Cc1ccccc1)N1C[C@H](N)C[C@H](N)C1 [AB-109 F3, (R)-methyl 2-((3S,5R)-3,5-diaminopiperidin-1-yl)-3-phenylpropanoate]",0.1 percentage of the living fluorescent cells,4.9 percentage of the living fluorescent cells,164%,153%,289%,110,95,75,,,,,,
"1-(3,5-diaminopiperidin-1-yl)-2-(3-methoxyphenyl)ethanone [ECO02-030-C]",0.5 percentage of the living fluorescent cells,0.1 percentage of the living fluorescent cells,,,,,,,,,139 percentage of control,166 percentage of control,109,107
"CC(C)(C)OC(=O)N[C@@H]1C[C@H](NC(=O)OC(C)(C)C)CN(Cc2ccccc2)C1 [ECO02-056-C, di-tert-butyl (1-benzylpiperidine-3,5-diyl)dicarbamate]",1.6 percentage of the living fluorescent cells,,100%,79%,,67,38,,,,,,,
